From US3989730A, “Bone-seeking technetium-99m complex” (priority 1973, dated 1976)
Where two headings read alike, the source gives them in different places.

Assays:
[1] = 2 Hrs
[2] = tested on: callous of three week-old fractures of tibia; assay: Localization in callous of three week-old tibial fractures (rabbits), compared with strontium-85; format: in vivo, albino rabbits
Protocol: Adult New Zealand albino rabbits having an average weight of 3.8 kg were utilized. Strontium-85 was employed as a standard for comparison. In a typical experiment 20-250 μCi (i.e., containing approximately 1 mg/kg as the free acid of body weight) of 99mTc EHDP were injected intravenously into the rabbits through the marginal ear vein and compared with 10-20 μ Ci 85 Sr chloride administered simutaneously. Each dosage is contained in a volume of 1 ml.
The animals were sacrificed serially from 1 to 24 hours after injection and the activities in major organs were determined by counting multiple samples from each organ in a scintillation well counter (the technetium-99m counts were corrected for the Compton contributions from the strontium-85 activity in the technetium-99m energy window). Multiple samples were counted from the tibia, femur, spine and pelvic bones; the total activity in the skeleton was estimated by assuming the whole skeleton consisted of equal proportions by weight of tibia, spine, femur and pelvis and that the skeletal mass was 10% of the body weight. The red marrow was sampled from the femur and the total marrow was assumed to be 2.2% of the total body weight. Similarly, blood volume was assumed to be 7% and the skeletal muscle 43% of the body weight. The whole liver and both kidneys were weighed and multiple samples from each were counted to measure the total activity in each organ.
In another series of experiments carried out as described above, localization of technetium from its tin-phosphonate complex was determined in the callous of three week-old fractures of tibia in albino rabbits, again in comparison with strontium-85. Comparative radioassay of technetium-99m administered as the pertechnetate was measured in the callous of tibial fractures in rabbits at one and four hours after administration.

[3] = Simultaneous distribution of 99mTc-EHDP and 85Sr in rabbits at 1-24 hours after intravenous injection; format: in vivo, adult New Zealand albino rabbits; conditions: for Blood, % Dose in Whole Organ: blood as 7 % of body weight; for Bone(Avg), % dose in whole organ: bone as 10 % of body weight; for Marrow, % Dose in Whole Organ: marrow as 2.2 % of body weight
Protocol: Adult New Zealand albino rabbits having an average weight of 3.8 kg were utilized. Strontium-85 was employed as a standard for comparison. […] Each dosage is contained in a volume of 1 ml.
Multiple samples were counted from the tibia, femur, spine and pelvic bones; the total activity in the skeleton was estimated by assuming the whole skeleton consisted of equal proportions by weight of tibia, spine, femur and pelvis and that the skeletal mass was 10% of the body weight. […] The whole liver and both kidneys were weighed and multiple samples from each were counted to measure the total activity in each organ.

[4] = cited from earlier work

tin-1-hydroxy-ethane-1,1-diphosphonate [99mTc-EHDP]
Blood, % Dose in Whole Organ ([1]; EHDP 0.01 mg/kg): 0.99 % Dose | Kidneys, % Dose in Whole Organ ([1]; EHDP 0.01 mg/kg): 0.81 % Dose | Liver, % Dose in Whole Organ ([1]; EHDP 0.01 mg/kg): 0.53 % Dose | Marrow, % Dose in Whole Organ ([1]; EHDP 0.01 mg/kg): 0.34 % Dose | Muscle, % Dose in Whole Organ ([1]; EHDP 0.01 mg/kg): 0.78 % Dose | One Femur, % Dose in Whole Organ ([1]; EHDP 0.01 mg/kg): 2.20 % Dose | One Tibia, % Dose in Whole Organ ([1]; EHDP 0.01 mg/kg): 2.05 % Dose | Urine, % Dose ([1]; EHDP 0.01 mg/kg): 46.7 % Dose | Blood, % Dose in Whole Organ ([1]; EHDP 0.05 mg/kg): 1.35 % Dose | Kidneys, % Dose in Whole Organ ([1]; EHDP 0.05 mg/kg): 2.9 % Dose | Liver, % Dose in Whole Organ ([1]; EHDP 0.05 mg/kg): 1.61 % Dose | Marrow, % Dose in Whole Organ ([1]; EHDP 0.05 mg/kg): 0.78 % Dose | Muscle, % Dose in Whole Organ ([1]; EHDP 0.05 mg/kg): 1.33 % Dose | One Femur, % Dose in Whole Organ ([1]; EHDP 0.05 mg/kg): 2.44 % Dose | One Tibia, % Dose in Whole Organ ([1]; EHDP 0.05 mg/kg): 2.22 % Dose | Urine, % Dose ([1]; EHDP 0.05 mg/kg): 37.3 % Dose | Blood, % Dose in Whole Organ ([1]; EHDP 0.1 mg/kg): 1.02 % Dose | Kidneys, % Dose in Whole Organ ([1]; EHDP 0.1 mg/kg): 0.63 % Dose | Liver, % Dose in Whole Organ ([1]; EHDP 0.1 mg/kg): 0.19 % Dose | Marrow, % Dose in Whole Organ ([1]; EHDP 0.1 mg/kg): 0.20 % Dose | Muscle, % Dose in Whole Organ ([1]; EHDP 0.1 mg/kg): 0.98 % Dose | One Femur, % Dose in Whole Organ ([1]; EHDP 0.1 mg/kg): 2.82 % Dose | One Tibia, % Dose in Whole Organ ([1]; EHDP 0.1 mg/kg): 2.44 % Dose | Urine, % Dose ([1]; EHDP 0.1 mg/kg): 30.4 % Dose | Blood, % Dose in Whole Organ ([1]; EHDP 0.5 mg/kg): 1.503 % Dose | Kidneys, % Dose in Whole Organ ([1]; EHDP 0.5 mg/kg): 1.10 % Dose | Liver, % Dose in Whole Organ ([1]; EHDP 0.5 mg/kg): 0.260 % Dose | Marrow, % Dose in Whole Organ ([1]; EHDP 0.5 mg/kg): 0.19 % Dose | Muscle, % Dose in Whole Organ ([1]; EHDP 0.5 mg/kg): 1.22 % Dose | One Femur, % Dose in Whole Organ ([1]; EHDP 0.5 mg/kg): 1.75 % Dose | One Tibia, % Dose in Whole Organ ([1]; EHDP 0.5 mg/kg): 1.43 % Dose | Urine, % Dose ([1]; EHDP 0.5 mg/kg): 55.37 % Dose | Callus, % dose / 1 % body weight ([2]; 1 Hr): 24.7 % dose / 1 % body weight | Callus, % dose / 1 % body weight ([2]; 4 Hrs): 28.9 % dose / 1 % body weight | concentration in the callous compared with 85Sr ([2]; rabbits): somewhat lower than that of 85 Sr | Blood, % dose / 1 % body weight ([3]; 1 Hr): 1.23 % dose / 1 % body weight | Bone(Avg), % dose / 1 % body weight ([3]; 1 Hr): 4.66 % dose / 1 % body weight | Femur, % dose / 1 % body weight ([3]; 1 Hr): 3.85 % dose / 1 % body weight | Kidneys, % Dose in Whole Organ ([3]; 1 Hr): 2.40 % dose | Kidneys, % dose / 1 % body weight ([3]; 1 Hr): 3.93 % dose / 1 % body weight | Liver, % Dose in Whole Organ ([3]; 1 Hr): 0.80 % dose | Liver, % dose / 1 % body weight ([3]; 1 Hr): 0.30 % dose / 1 % body weight | Marrow, % dose / 1 % body weight ([3]; 1 Hr): 0.36 % dose / 1 % body weight | Muscle, % dose / 1 % body weight ([3]; 1 Hr): 0.15 % dose / 1 % body weight | One Femur, % Dose in Whole Organ ([3]; 1 Hr): 0.82 % dose | Pelvis, % dose / 1 % body weight ([3]; 1 Hr): 7.15 % dose / 1 % body weight | Spine, % dose / 1 % body weight ([3]; 1 Hr): 5.87 % dose / 1 % body weight | Tibia, % dose / 1 % body weight ([3]; 1 Hr): 2.17 % dose / 1 % body weight | Urine, % Dose ([3]; 1 Hr): 30.9 % dose | Blood, % Dose in Whole Organ ([3]; 1 Hr): 8.61 % dose | Bone(Avg), % dose in whole organ ([3]; 1 Hr): 46.6 % dose | Marrow, % Dose in Whole Organ ([3]; 1 Hr): 0.70 % dose | Blood, % dose / 1 % body weight ([3]; 2 Hrs): 0.37 % dose / 1 % body weight | Bone(Avg), % dose / 1 % body weight ([3]; 2 Hrs): 4.82 % dose / 1 % body weight | Femur, % dose / 1 % body weight ([3]; 2 Hrs): 3.94 % dose / 1 % body weight | Kidneys, % Dose in Whole Organ ([3]; 2 Hrs): 1.22 % dose | Kidneys, % dose / 1 % body weight ([3]; 2 Hrs): 2.72 % dose / 1 % body weight | Liver, % Dose in Whole Organ ([3]; 2 Hrs): 0.42 % dose | Liver, % dose / 1 % body weight ([3]; 2 Hrs): 0.18 % dose / 1 % body weight | Marrow, % dose / 1 % body weight ([3]; 2 Hrs): 0.17 % dose / 1 % body weight | Muscle, % dose / 1 % body weight ([3]; 2 Hrs): 0.04 % dose / 1 % body weight | One Femur, % Dose in Whole Organ ([3]; 2 Hrs): 0.84 % dose | Pelvis, % dose / 1 % body weight ([3]; 2 Hrs): 7.40 % dose / 1 % body weight | Spine, % dose / 1 % body weight ([3]; 2 Hrs): 5.44 % dose / 1 % body weight | Tibia, % dose / 1 % body weight ([3]; 2 Hrs): 2.49 % dose / 1 % body weight | Urine, % Dose ([3]; 2 Hrs, 1 mg/kg): 51.8 % dose | Blood, % Dose in Whole Organ ([3]; 2 Hrs): 2.58 % dose | Bone(Avg), % dose in whole organ ([3]; 2 Hrs): 48.2 % dose | Marrow, % Dose in Whole Organ ([3]; 2 Hrs): 0.38 % dose | Blood, % dose / 1 % body weight ([3]; 4 Hrs): 0.13 % dose / 1 % body weight | Bone(Avg), % dose / 1 % body weight ([3]; 4 Hrs): 4.74 % dose / 1 % body weight | Femur, % dose / 1 % body weight ([3]; 4 Hrs): 3.86 % dose / 1 % body weight | Kidneys, % Dose in Whole Organ ([3]; 4 Hrs): 0.94 % dose | Kidneys, % dose / 1 % body weight ([3]; 4 Hrs): 1.95 % dose / 1 % body weight | Liver, % Dose in Whole Organ ([3]; 4 Hrs): 0.28 % dose | Liver, % dose / 1 % body weight ([3]; 4 Hrs): 0.11 % dose / 1 % body weight | Marrow, % dose / 1 % body weight ([3]; 4 Hrs): 0.38 % dose / 1 % body weight | Muscle, % dose / 1 % body weight ([3]; 4 Hrs): 0.03 % dose / 1 % body weight | One Femur, % Dose in Whole Organ ([3]; 4 Hrs): 0.81 % dose | Pelvis, % dose / 1 % body weight ([3]; 4 Hrs): 7.41 % dose / 1 % body weight | Spine, % dose / 1 % body weight ([3]; 4 Hrs): 5.52 % dose / 1 % body weight | Tibia, % dose / 1 % body weight ([3]; 4 Hrs): 2.16 % dose / 1 % body weight | Urine, % Dose ([3]; 4 Hrs, 1 mg/kg): 53.4 % dose | Blood, % Dose in Whole Organ ([3]; 4 Hrs): 0.89 % dose | Bone(Avg), % dose in whole organ ([3]; 4 Hrs): 47.4 % dose | Marrow, % Dose in Whole Organ ([3]; 4 Hrs): 0.83 % dose | Blood, % dose / 1 % body weight ([3]; 24 Hrs): 0.07 % dose / 1 % body weight | Bone(Avg), % dose / 1 % body weight ([3]; 24 Hrs): 4.14 % dose / 1 % body weight | Femur, % dose / 1 % body weight ([3]; 24 Hrs): 3.42 % dose / 1 % body weight | Kidneys, % Dose in Whole Organ ([3]; 24 Hrs): 0.63 % dose | Kidneys, % dose / 1 % body weight ([3]; 24 Hrs): 1.29 % dose / 1 % body weight | Liver, % Dose in Whole Organ ([3]; 24 Hrs): 0.43 % dose | Liver, % dose / 1 % body weight ([3]; 24 Hrs): 0.28 % dose / 1 % body weight | Marrow, % dose / 1 % body weight ([3]; 24 Hrs): 0.19 % dose / 1 % body weight | Muscle, % dose / 1 % body weight ([3]; 24 Hrs): 0.02 % dose / 1 % body weight | One Femur, % Dose in Whole Organ ([3]; 24 Hrs): 0.76 % dose | Pelvis, % dose / 1 % body weight ([3]; 24 Hrs): 5.70 % dose / 1 % body weight | Spine, % dose / 1 % body weight ([3]; 24 Hrs): 5.30 % dose / 1 % body weight | Tibia, % dose / 1 % body weight ([3]; 24 Hrs): 2.10 % dose / 1 % body weight | Blood, % Dose in Whole Organ ([3]; 24 Hrs): 0.49 % dose | Bone(Avg), % dose in whole organ ([3]; 24 Hrs): 41.5 % dose | Marrow, % Dose in Whole Organ ([3]; 24 Hrs): 0.42 % dose | skeletal concentrations compared with 85Sr ([3]; rabbits): similar | soft tissue and blood concentrations compared with 85Sr ([3]; various times, rabbits): much lower than those for 85 Sr

technetium-99m
external photon yield ([4]; gamma emission of 140 KeV): 90% | half-life of radionuclide ([4]; radioactive decay): 6 h
